pIC50: −log10 of the molar value. The source made the active and inactive calls. The calls are words filed in the database; no cut-off is given here.
What was measured:
Format in all cases: functional, cell-based
[1] = test system: 4T1; experiment: Induction of mitochondrial membrane damage in mouse 4T1 cells assessed as increase in proton leak at 50 to 100 uM in presence of oligomycin/FCCP/antimycin/rotenone by seahorse XFe96 analyser based assay
[2] = test system: WiDr; experiment: Antiproliferative activity against human WiDr cells assessed as reduction in cell viability after 72 hrs by MTT assay
[3] = test system: WiDr; experiment: Induction of glycolytic stress in human WiDr cells assessed as reduction in glycolytic capacity at 100 uM in presence of glucose/oligomycin and 2-deoxyglucose by seahorse XFe96 analyser based assay
[4] = test system: WiDr; experiment: Induction of glycolytic stress in human WiDr cells assessed as increase in glycolysis at 50 to 100 uM in presence of glucose/oligomycin and 2-deoxyglucose by seahorse XFe96 analyser based assay
[5] = test system: MIA PaCa-2; experiment: Antiproliferative activity against human MIAPaCa2 cells assessed as reduction in cell viability after 72 hrs by MTT assay; details: MIA PaCa-2, 72 h
[6] = test system: 4T1; experiment: Induction of glycolytic stress in mouse 4T1 cells assessed as reduction in glycolytic capacity at 50 to 100 uM in presence of glucose/oligomycin and 2-deoxyglucose by seahorse XFe96 analyser based assay
[7] = test system: 4T1; experiment: Induction of mitochondrial stress in mouse 4T1 cells assessed as effect on spare respiratory capacity at 50 to 100 uM in presence of oligomycin/FCCP/antimycin/rotenone by seahorse XFe96 analyser based assay
[8] = test system: WiDr; experiment: Induction of mitochondrial membrane damage in human WiDr cells assessed as increase in proton leak at 50 to 100 uM in presence of oligomycin/FCCP/antimycin/rotenone by seahorse XFe96 analyser based assay
[9] = test system: WiDr; experiment: Induction of glycolytic stress in human WiDr cells assessed as reduction in glycolytic reverse at 50 to 100 uM in presence of glucose/oligomycin and 2-deoxyglucose by seahorse XFe96 analyser based assay
[10] = test system: 4T1; experiment: Induction of mitochondrial stress in mouse 4T1 cells assessed as acute change in oxygen consumption rate by measuring reduction in ATP production at 100 uM in presence of oligomycin/FCCP/antimycin/rotenone by seahorse XFe96 analyser based assay
[11] = test system: 4T1; experiment: Induction of glycolytic stress in mouse 4T1 cells assessed as reduction in glycolytic reverse at 50 to 100 uM in presence of glucose/oligomycin and 2-deoxyglucose by seahorse XFe96 analyser based assay
[12] = test system: WiDr; experiment: Induction of mitochondrial stress in human WiDr cells assessed as acute change in oxygen consumption rate by measuring reduction in ATP production at 50 to 100 uM in presence of oligomycin/FCCP/antimycin/rotenone by seahorse XFe96 analyser based assay
[13] = test system: 4T1; experiment: Induction of mitochondrial morphological changes in mouse 4T1 cells assessed as fragmentation of mitochondrial networks at 100 uM after 24 hrs by mitotracker Red-CMXROS dye based epifluorescent microscopic analysis
[14] = test system: WiDr; experiment: Induction of mitochondrial morphological changes in human WiDr cells assessed as fragmentation of mitochondrial networks at 100 uM after 24 hrs by mitotracker Red-CMXROS dye based epifluorescent microscopic analysis
[15] = test system: WiDr; experiment: Induction of mitochondrial stress in human WiDr cells assessed as reduction in maximal respiration at 50 to 100 uM in presence of oligomycin/FCCP/antimycin/rotenone by seahorse XFe96 analyser based assay
[16] = test system: WiDr; experiment: Induction of mitochondrial stress in human WiDr cells assessed as effect on spare respiratory capacity at 50 to 100 uM in presence of oligomycin/FCCP/antimycin/rotenone by seahorse XFe96 analyser based assay
[17] = test system: 4T1; experiment: Induction of glycolytic stress in mouse 4T1 cells assessed as increase in glycolysis at 50 to 100 uM in presence of glucose/oligomycin and 2-deoxyglucose by seahorse XFe96 analyser based assay
[18] = test system: MCF7; experiment: Antiproliferative activity against human MCF7 cells assessed as reduction in cell viability after 72 hrs by MTT assay; details: MCF7, 72 h
[19] = test system: 4T1; experiment: Antiproliferative activity against mouse 4T1 cells assessed as reduction in cell viability after 72 hrs by MTT assay; details: 4T1, 72 h
[20] = test system: 4T1; experiment: Induction of mitochondrial stress in mouse 4T1 cells assessed as reduction in maximal respiration at 100 uM in presence of oligomycin/FCCP/antimycin/rotenone by seahorse XFe96 analyser based assay

| SMILES | Activity [1] | pIC50 [2] | Activity [3] | Activity [4] | pIC50 [5] | Activity [6] | Activity [7] | Activity [8] | Activity [9] | Activity [10] | Activity [11] | Activity [12] | Activity [13] | Activity [14] | Activity [15] | Activity [16] | Activity [17] | pIC50 [18] | pIC50 [19] | Activity [20] |
| --- | --- | --- | --- | --- | --- | --- | --- | --- | --- | --- | --- | --- | --- | --- | --- | --- | --- | --- | --- | --- |
| Cc1ccc([P+](CCC(=O)Nc2ccc3c(c2)B(O)OC3)(c2ccc(C)cc2)c2ccc(C)cc2)cc1 | Active | 4.62 | Active | Active | 4.36 | inactive | inactive | Active | Active | Active | Active | Active | Active | Active | Active | inactive | Active | 4.34 | 4.30 | inactive |
| O=C(CC[P+](c1ccc(F)cc1)(c1ccc(F)cc1)c1ccc(F)cc1)Nc1ccc2c(c1)B(O)OC2 |  | < 4.00 |  |  | < 4.00 |  |  |  |  |  |  |  | inactive | inactive |  |  |  | < 4.00 | < 4.00 |  |
| O=C(CC[P+](c1ccccc1)(c1ccccc1)C1CCCCC1)Nc1ccc2c(c1)B(O)OC2 |  | < 4.00 |  |  | < 4.00 |  |  |  |  |  |  |  |  |  |  |  |  | < 4.00 | < 4.00 |  |
| O=C(CCBr)Nc1ccc2c(c1)B(O)OC2 |  | < 4.00 |  |  | < 4.00 |  |  |  |  |  |  |  |  |  |  |  |  | < 4.00 | < 4.00 |  |
| COc1ccc([P+](CCC(=O)Nc2ccc3c(c2)B(O)OC3)(c2ccc(OC)cc2)c2ccc(OC)cc2)cc1 |  | < 4.00 |  |  | < 4.00 |  |  |  |  |  |  |  |  |  |  |  |  | < 4.00 | < 4.00 |  |
| O=C(CC[P+](c1ccccc1)(c1ccccc1)c1ccccc1)Nc1ccc2c(c1)B(O)OC2 |  | < 4.00 |  |  | < 4.00 |  |  |  |  |  |  |  | inactive | inactive |  |  |  | < 4.00 | < 4.00 |  |
